# Entries after “also recorded” stand apart in the source; their conditions may differ.
# Key:
# [1] = system: C57BL/6N mice; test: Hair re-growth in hair-removed telogen mice, subcutaneous injection for 6 weeks (visual observation, hair length); type: in vivo, mouse; settings: for hair growth state (visual): s.c. 0.8 mg/0.1 mL in corn oil daily
# [2] = system: VEGF (vascular endothelial growth factor); test: RT-PCR gene expression in back skin tissue, VEGF; type: in vivo, mouse; settings: 6 weeks s.c., compared to the negative control group, FIG. 5
# Method: (§1) After adding 1 mL of Trizol agent to 50-100 mg of test animal skin tissues, the mixture was homogenized and centrifuged at 12,000×g for 10 min at 4° C. The supernatant was transferred to a new tube to remove fat layer. Then, 200 μl of chloroform was added to the tube, followed by vortexing. The same procedure was repeated twice and then the supernatant was transferred to a new tube, followed by addition of isopropanol and the supernatant at 1:1 ratio. The mixture was vigorously shaken 10 times and then incubated for 10 min at room temperature, followed by centrifugation at 12,000×g for 10 min at 4° C. to remove the supernatant. After adding 1 mL of 70% ethanol to the remaining pellet, it was centrifuged at 7,500×g for 5 min at 4° C. After removing the ethanol, the RNA pellet contained in the tube was dried for 5 min at 4° C. and dissolved in nuclease-free water. The RNA sample concentration was measured at a wavelength of 260 nm and 280 nm using a UV/VIS spectrophotometer (Beckman coulter, DU730) and the integrity of RNA sample was verified by agarose gel electrophoresis.
# (§2) The RNA sample obtained was trasnscribed using oligo dT primer and SuperScript reverse transcriptase (GIBCO BRL, Gaithersburg, Md., USA) to synthesize cDNA. The PCR amplification was performed using the cDNA as templates and primers complementary to cDNA 5′ and 3′ flanking sequence. […]
# [3] = system: hair follicles; test: Histological analysis of the back skin (hair growth cycle, hair follicles); type: in vivo, mouse; settings: for Anagen ratio / anagen phases observed (number of cases): 4 animals per group
# Text: At 6 weeks after subcutaneous injection, mice were sacrificed. Their back skin tissue samples were isolated using scissors and forceps and fixed by formalin. After dehydration with serial alcohol and xylene, the tissues were paraffinized. Paraffinized tissues were sectioned using a microtomb in a thickness of 5 μm and used alcohol and xylene to remove paraffin. Then, the tissues were stained with hematoxyline/eosin, followed by observation of histological changes in hair follicles under an optical microscope. The hair growth cycles in the tissues were pathologically diagnosed by specialists, and quantity and diameter of hair follicle were measured under an optical microscope.
# [4] = system: IGF1; test: Immunohistochemical test on skin tissue, IGF1; type: in vivo, mouse; settings: 6 weeks s.c., FIG. 4
# Method: (§3) In order to verify expression amounts of IGF1 and β-catenin related with hair growth in skin tissue, each primary antibody to IGF1 and β-catenin was diluted to 1:50, added to tissue sections, and incubated for 12 hours at room temperature. The primary antibody was diluted with the mixture of 0.1% normal goat serum (Vector Laboratories Inc.) and 0.3% Triton X-100 (Sigma) in 0.1 M phosphate buffer solution (PB). The tissue sections were washed twice at room temperature for 15 minutes in 0.1M PB. Then, secondary antibody [biotinylated anti-rabbit IgG (Vector Laboratories Inc.)] was diluted to 1:200, added to the tissue sections, and incubated for 1 hour at room temperature. The tissue sections were washed twice at room temperature for 15 minutes in 0.1M PB, soaked in peroxidase-labeled ABC solution, and incubated for 1 hour at room temperature. The tissue sections were washed twice at room temperature for 15 minutes in 0.1M PB. Then, the tissue sections were reacted for 5 min with a solution in which 30 mg of 3-3′ diaminobenzidine was dissolved in 150 ml of 0.1M PB, added with concentration of 0.005% of hydrogen peroxide, and reacted for 5 min to occur color reaction. The tissue sections were washed several times at room temperature in 0.1M PB. […]
# [5] = cited from earlier work
# [6] = system: HGF (hepatocyte growth factor); test: RT-PCR gene expression in back skin tissue, HGF; type: in vivo, mouse; settings: 6 weeks s.c., compared to the negative control group, FIG. 5
# Method: as §1, §2
# [7] = system: GSK3β (glycogen synthase kinase 3β); test: RT-PCR gene expression in back skin tissue, GSK3β; type: in vivo, mouse; settings: 6 weeks s.c., compared to the negative control group
# Method: as §1, §2
# [8] = system: β-catenin; test: RT-PCR gene expression in back skin tissue, β-catenin; type: in vivo, mouse; settings: 6 weeks s.c., compared to the negative control group
# Method: as §1, §2
# [9] = system: Axin; test: RT-PCR gene expression in back skin tissue, Axin; type: in vivo, mouse; settings: 6 weeks s.c., compared to the negative control group
# Method: as §1, §2
# [10] = system: IGF1 (insulin-like growth factor 1); test: RT-PCR gene expression in back skin tissue, IGF1; type: in vivo, mouse; settings: 6 weeks s.c., compared to the negative control group, FIG. 5
# Method: as §1, §2
# [11] = system: β-catenin; test: Immunohistochemical test on skin tissue, β-catenin; type: in vivo, mouse; settings: 6 weeks s.c., FIG. 4
# Method: as §3
# [12] = system: LRP5 (low-density lipoprotein receptor-related protein 5); test: RT-PCR gene expression in back skin tissue, LRP5; type: in vivo, mouse; settings: 6 weeks s.c., compared to the negative control group
# Method: as §1, §2
# [13] = system: KGF (keratocyte growth factor); test: RT-PCR gene expression in back skin tissue, KGF; type: in vivo, mouse; settings: 6 weeks s.c., compared to the negative control group, FIG. 5
# Method: as §1, §2
# [14] = system: FZDR (frizzled receptor 1); test: RT-PCR gene expression in back skin tissue, FZDR; type: in vivo, mouse; settings: 6 weeks s.c., compared to the negative control group
# Method: as §1, §2
# [15] = system: Wnt10b; test: RT-PCR gene expression in back skin tissue, Wnt10b; type: in vivo, mouse; settings: 6 weeks s.c., compared to the negative control group
# Method: as §1, §2
# [16] = Measurement on changes in body weight; type: in vivo, mouse; settings: initial body weights and at 6 weeks; vs negative control group (Con)
# Method: 12 of 6-week-old male C57BL/6N mice (Orientbio) were adapted to the environment for 2 weeks. Then, they were divided into total 3 groups, the negative control group (Con), the positive control group (MXD) and oleuropein group (Ole), and used for test. The environment for animals were maintained at 21±2.0° C. and relative humidity 50±5% under 12 hours light/dark cycle. They were fed a food (chow) and water with free access.
# In order to verify an effect for promoting hair growth, 8-week-old mice in telogen were used for test. Hairs of their back were removed using a clipper for mouse. They were subcutaneously injected with 0.1 mL of sample at the part, everyday. Before subcutaneous injection, the test substance oleuropein (0.8 mg/0.1 mL) and the control drug minoxidil were dissolved in corn oil to use. The negative control group was subcutaneously injected with only vehicle (corn oil). The application was performed once, every P.M. 4:00 for 6 weeks. […] To assess level of hair growth, the hair length was measured using ruler.
# Body weight was measured weekly during entire test period, from the point before the subcutaneous injection of the hair restorers to the end point of the subcutaneous injection of the hair restorers.
structure (smiles),measurement,setting,value
C/C=C1/[C@H](O[C@@H]2O[C@H](CO)[C@@H](O)[C@H](O)[C@H]2O)OC=C(C(=O)OC)[C@H]1CC(=O)OCCc1ccc(O)c(O)c1 [oleuropein],effect for promoting hair growth (visual) compared with minoxidil,"[1]; 6 weeks s.c. injection, FIG. 1",more excellent effect for promoting hair growth than that of the minoxidil
same,effect for stimulating hair growth (hair length) compared with minoxidil,"[1]; 6 weeks s.c. injection, FIG. 2",excellent effect for stimulating hair growth than that of the minoxidil
same,hair length,"[1]; at 3 weeks, p<0.05",significantly increased
same,hair growth state (visual),[1]; at 3 weeks,hairs were grown
same,"hair length, increase compared to the negative control group",[1]; at 6 weeks,62%
same,hair growth state (visual),[1]; at 6 weeks,hairs were vigorously grown
same,gene expression level of VEGF,[2],significantly increased
same,hair follicle length / appearance,[3]; back skin at 6 weeks,became longer and they were expressed into skin
same,"Histological diagnosis of hair growth cycle, individual animals (Animal ID 1-4)",[3]; back skin at 6 weeks after s.c. injection,Telogen; also recorded: Anagen
same,Anagen ratio,[3]; back skin at 6 weeks,50%
same,anagen phases observed (number of cases),[3]; back skin at 6 weeks,2 case
same,diameter of the hair follicles,"[3]; image analysis, compared to the negative control group",significantly increased
same,number of hair follicles,"[3]; optical microscope 40× magnification, compared to the negative control group, FIG. 3",significantly increased
same,effect for increasing protein expression level of IGF1 compared with minoxidil,[4],more excellent effect
same,protein expression level of IGF1,[4]; vs the negative group,much more highly detected
same,toxicity,[5]; mouse treated with 1 g/kg (body weight) for 7 days,no toxicity
same,LD50,[5]; through various experiments,may not be calculated
same,gene expression level of HGF,[6],significantly increased
same,gene expression level of GSK3β,[7],significantly decreased
same,gene expression level of β-catenin,[8],significantly increased
same,gene expression level of Axin,[9],significantly decreased
same,gene expression level of IGF1,[10],significantly increased
same,effect for increasing protein expression level of β-catenin compared with minoxidil,[11],more excellent effect
same,protein expression level of β-catenin,[11]; vs the negative group,much more highly detected
same,gene expression level of LRP5,[12],significantly increased
same,gene expression level of KGF,[13],significantly increased
same,gene expression level of FZDR (frizzled receptor 1),[14],significantly increased
same,gene expression level of Wnt10b,[15],significantly increased
"Nc1cc(N2CCCCC2)nc(N)[n+]1[O-] [minoxidil, reference compound]",Anagen ratio,[3]; back skin at 6 weeks,25%
same,anagen phases observed (number of cases),[3]; back skin at 6 weeks,1 case
same,"body weight, difference between groups",[16],no significant differences

# From patent US9636289B2, “Composition for preventing or treating hair loss or promoting hair growth comprising secoiridoid glucoside derivatives” (priority 2012, dated 2017)
